Measured values taken from patent US20100273872A1, “USE OF 4-OXOBUTANOIC ACID DERIVATIVES IN THE TREATMENT OF PATHOLOGIES ASSOCIATED WITH IMMUNOLOGICAL DISORDERS” (priority 2007, published 2010).
Marks after values point to notes of the source that are not given here.

Tested on: humoral immunity in rats (splenocytes producing anti-sheep erythrocyte antibodies)
Experiment: Direct haemolytic plaque (plaque-forming cells, PFC) test after immunisation with sheep erythrocytes
Assay type: in vivo, male Wistar rats
Conditions: rat; for % inhibition: haemolytic plaques (PFC)
Protocol: The immunosuppressive activity was evaluated by studying the humoral immunity in rats through the quantification of direct haemolytic plaques (“plaque-forming cells”—PFC) after immunisation with sheep erythrocytes.
This technique consists in stimulating the immune system with an anti-genic agent, the sheep erythrocytes, and in evaluating the effect of a substance on the immune response. This immune response is evaluated by measuring the proportion of splenocytes that produce anti-sheep erythrocyte antibodies in the presence of a complement (Jerne N. K., 1974).
The effect of the compounds, in suspension in methylcellulose hydrogel (Sigma ref: M0512), on the immune system was evaluated in male Wistar rats after oral administration for 5 and 7 days (5 days before sensitisation and 2 days after). The administration volume was 10 ml/kg.
10 rats were used in each group, each group corresponding to a dose of a compound, plus a control group (blank) and a positive control group (reference substance). The reference substance used was cyclophosphamide (monohydrate) from Sigma (ref: C0768) at a dose of 20 mg/kg administrated subcutaneously at a rate of 1 ml/kg, only administrated on the fifth day. During the four previous days, the animals were treated with the compound vehicle (methylcellulose).
On the fifth day, one hour after treatment, the animals were sensitised with sheep erythrocytes administrated intravenously (caudal vein), at a rate of 0.5 ml per animal. The sheep erythrocytes were suspended at a concentration of 2×10^9 cells/ml in a sodium chloride solution (isotonic).
On the ninth day, i.e. 4 days after sensitisation, the spleen was removed after euthanasia by exsanguination (section of the abdominal aorta) of the animals, which were previously anaesthetised with pentobarbital (Sanofi, 60 mg/kg).
Half of the spleen was broken up (ground), giving, after preparation, a suspension of splenocytes in PBS buffer (Dulbecco Gibco Ref: 3018199) containing 10^7 cells per millilitre.
The haemolytic plaque (PFC) reaction was induced by addition of 50 microlitres of the splenocyte suspension obtained for each animal in 200 microlitres of a suspension of PBS comprising complement and sheep erythrocytes.
The mixture, placed between the slide (holder) and cover slip creating an evaluation chamber (40 μl) delimited by paraffin, was incubated for one hour at 37° C.
At the end of the incubation, the slides were immediately placed flat at 4° C. The evaluation was performed as soon as possible. The number of haemolytic plaques (PFC) was determined by a standardised method of slide evaluation using an optical microscope. A haemolytic plaque (PFC) is a plaque where only one trapped splenocyte can be observed. The number of haemolytic plaques (PFC) is calculated for 10^6 spleen cells.

SMILES | % inhibition (1st experiment, 30 mg/Kg oral, treatment for 5 days before sensitisation) | % inhibition (1st experiment, 100 mg/Kg oral, treatment for 5 days before sensitisation) | % inhibition (1st experiment, 300 mg/Kg oral, treatment for 5 days before sensitisation) | % inhibition (2nd experiment, 0.01 mg/Kg oral, treatment for 7 days (5 days before sensitisation and 2 days after)) | % inhibition (2nd experiment, 0.1 mg/Kg oral, treatment for 7 days (5 days before sensitisation and 2 days after)) | % inhibition (2nd experiment, 1 mg/Kg oral, treatment for 7 days (5 days before sensitisation and 2 days after)) | dose giving a statistically significant decrease in the number of haemolytic plaques (PFC) (oral, decrease in the humoral immune response) | effect in relation to the treatment phase (treatment before sensitisation only vs. also after sensitisation) | % inhibition (1st experiment, cyclophosphamide 20 mg/Kg subcutaneously, only on the fifth day) | % inhibition (2nd experiment, cyclophosphamide 20 mg/Kg subcutaneously, only on the fifth day)
O=C(CC(Cc1ccccc1)C(=O)O)c1ccc(F)cc1 (single isomer, unassigned; (-)) [Molecule A, (−) 4-(4-Fluorophenyl)-4-oxo-2-phenylmethylbutanoic acid] | 3% | 19** % | 29** % | 0% | 43 * % | 42** % | ≥ 0.1 mg/kg | stronger effect after the sensitisation phase | – | –
O=P1(N(CCCl)CCCl)NCCCO1 (stereo not shown) [Cyclophosphamide, cyclophosphamide, reference compound] | – | – | – | – | – | – | – | – | 85** % | 54** %
